Results as given in the supplement of paper PMC11451515.

System: SEM cells
Assay: cell viability relative to DMSO control; higher = less cytotoxic
Conditions: 48 h
How it was run: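 Before seeding, each leukemia line was adapted for at least four passages in each medium. NOMO1 or SEM cells (500 cells/well) and P12-Ichikawa cells (1000 cells/well) went into 1536-well plates at 5 μl, then received library compounds in DMSO by pin dosing across 11 threefold concentrations, 47 μM to 0.79 nM. Readout was CellTiter-Glo One luminescence after 48 h at 37°C, and viability is given as a per-plate percentage of DMSO wells, with cell-free wells as background.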

[1] = HPLM + 10% dialyzed FBS, 0.000781 µM
[2] = HPLM + 10% dialyzed FBS, 0.00234 µM
[3] = HPLM + 10% dialyzed FBS, 0.00702 µM
[4] = HPLM + 10% dialyzed FBS, 0.0211 µM
[5] = HPLM + 10% dialyzed FBS, 0.0632 µM
[6] = HPLM + 10% dialyzed FBS, 0.19 µM
[7] = HPLM + 10% dialyzed FBS, 0.569 µM
[8] = HPLM + 10% dialyzed FBS, 1.71 µM
[9] = HPLM + 10% dialyzed FBS, 5.12 µM
[10] = HPLM + 10% dialyzed FBS, 15.4 µM
[11] = HPLM + 10% dialyzed FBS, 46.1 µM
[12] = RPMI 5 mM glucose + 10% FBS, 0.000781 µM
[13] = RPMI 5 mM glucose + 10% FBS, 0.00234 µM
[14] = RPMI 5 mM glucose + 10% FBS, 0.00702 µM
[15] = RPMI 5 mM glucose + 10% FBS, 0.0211 µM
[16] = RPMI 5 mM glucose + 10% FBS, 0.0632 µM
[17] = RPMI 5 mM glucose + 10% FBS, 0.19 µM
[18] = RPMI 5 mM glucose + 10% FBS, 0.569 µM
[19] = RPMI 5 mM glucose + 10% FBS, 1.71 µM
[20] = RPMI 5 mM glucose + 10% FBS, 5.12 µM
[21] = RPMI 5 mM glucose + 10% FBS, 15.4 µM
[22] = RPMI 5 mM glucose + 10% FBS, 46.1 µM
[23] = RPMI 5 mM glucose + 10% dialyzed FBS, 0.000781 µM
[24] = RPMI 5 mM glucose + 10% dialyzed FBS, 0.00234 µM
[25] = RPMI 5 mM glucose + 10% dialyzed FBS, 0.00702 µM
[26] = RPMI 5 mM glucose + 10% dialyzed FBS, 0.0211 µM
[27] = RPMI 5 mM glucose + 10% dialyzed FBS, 0.0632 µM
[28] = RPMI 5 mM glucose + 10% dialyzed FBS, 0.19 µM
[29] = RPMI 5 mM glucose + 10% dialyzed FBS, 0.569 µM
[30] = RPMI 5 mM glucose + 10% dialyzed FBS, 1.71 µM
[31] = RPMI 5 mM glucose + 10% dialyzed FBS, 5.12 µM
[32] = RPMI 5 mM glucose + 10% dialyzed FBS, 15.4 µM
[33] = RPMI 5 mM glucose + 10% dialyzed FBS, 46.1 µM

Row | SMILES | cell viability [1] | cell viability [2] | cell viability [3] | cell viability [4] | cell viability [5] | cell viability [6] | cell viability [7] | cell viability [8] | cell viability [9] | cell viability [10] | cell viability [11] | cell viability [12] | cell viability [13] | cell viability [14] | cell viability [15] | cell viability [16] | cell viability [17] | cell viability [18] | cell viability [19] | cell viability [20] | cell viability [21] | cell viability [22] | cell viability [23] | cell viability [24] | cell viability [25] | cell viability [26] | cell viability [27] | cell viability [28] | cell viability [29] | cell viability [30] | cell viability [31] | cell viability [32] | cell viability [33]
1 | C[C@H]1C[C@H]2[C@@H]3CCC4=CC(=O)C=C[C@]4(C)[C@H]3C(=O)C[C@]2(C)[C@@]1(O)C(=O)CO | 77% | 81.5% | 77.8% | 88.9% | 70.6% | 99.8% | 96.5% | 92.7% | 88.7% | 81.9% | 9.17% | 82.3% | 81.3% | 90.3% | 78.8% | 72.5% | 87% | 92.5% | 91.7% | 71.3% | 58.5% | 7.21% | 93.2% | 85.2% | 83.4% | 91.1% | 77.5% | 101% | 93.6% | 97.6% | 85.4% | 74.4% | 7.99%
2 | CCC(=O)OC1CCC2C3CCC/4=C/C(=O)CC[C@@]4(C)C3CC[C@]12C (some centres not stated) | 104% | 107% | 110% | 118% | 132% | 115% | 128% | 141% | 123% | 121% | 137% | 102% | 107% | 116% | 119% | 133% | 138% | 124% | 128% | 120% | 125% | 117% | 102% | 111% | 102% | 114% | 139% | 114% | 115% | 137% | 120% | 127% | 127%
3 | O=[N+]([O-])c1ccc(Nc2ccccc2-c2ccccc2)c2nonc12 | 71.9% | 79.4% | 90.5% | 84.4% | 63.4% | 62% | 68.8% | 62.8% | 78.1% | 48.7% | 26.4% | 93.5% | 91.7% | 100% | 102% | 77.6% | 52.2% | 83.8% | 48.9% | 61.6% | 32.2% | 27% | 72.6% | 70.5% | 80.5% | 90.9% | 58.8% | 62.8% | 64.8% | 30.9% | 54.4% | 42.3% | 26.1%
4 | CC[C@H](NC(C)C)[C@H](O)c1ccc(O)c2[nH]c(=O)ccc12 | 75.6% | 90.5% | 101% | 92.8% | 89.3% | 100% | 94.6% | 98.1% | 98.5% | 98.8% | 68.4% | 89.2% | 112% | 96.9% | 107% | 109% | 98.1% | 108% | 100% | 104% | 106% | 79.3% | 100% | 87.5% | 98% | 109% | 119% | 109% | 125% | 105% | 113% | 98.9% | 85.5%
5 | CCCOc1ccc2[nH]c(NC(=O)OC)nc2c1 | 106% | 99.4% | 97.6% | 82.9% | 42.1% | 25.4% | 23% | 25.8% | 25.7% | 24.6% | 23% | 95.3% | 78.3% | 70% | 60% | 23.6% | 14.1% | 13.2% | 9.52% | 11.6% | 12.1% | 15.1% | 120% | 123% | 94.4% | 80.2% | 45.2% | 20.1% | 22.5% | 15.3% | 17.5% | 20.8% | 18.7%
6 | COc1ccc(CC2c3cc(OC)c(OC)cc3CC[N+]2(C)CCC(=O)OCCCCCOC(=O)CC[N+]2(C)CCc3cc(OC)c(OC)cc3C2Cc2ccc(OC)c(OC)c2)cc1OC (configuration not stated) | 81.2% | 80.8% | 92.9% | 98.4% | 80.3% | 94% | 103% | 101% | 97.1% | 22.6% | 88% | 81% | 77.6% | 94% | 78.5% | 81.1% | 99.2% | 91.2% | 102% | 92.1% | 13.2% | 85.1% | 75% | 73.3% | 93.8% | 96% | 79.9% | 93.8% | 104% | 103% | 91.1% | 22.1% | 80.2%
7 | C[C@]12CC[C@@H]3c4ccc(O)cc4CC[C@H]3[C@@H]1CC[C@@H]2O | 109% | 110% | 121% | 115% | 98.9% | 119% | 113% | 97.4% | 95.7% | 85.2% | 23.4% | 124% | 124% | 129% | 142% | 125% | 123% | 118% | 114% | 113% | 84% | 21.1% | 127% | 118% | 124% | 144% | 116% | 121% | 114% | 115% | 105% | 82% | 16.5%
8 | CO[C@H]1/C=C/O[C@@]2(C)Oc3c(C)c(O)c4c(O)c(c(/C=N/N5CCN(C)CC5)c(O)c4c3C2=O)NC(=O)/C(C)=C\C=C\[C@H](C)[C@H](O)[C@@H](C)[C@@H](O)[C@@H](C)[C@H](OC(C)=O)[C@@H]1C | 107% | 121% | 130% | 126% | 119% | 121% | 119% | 113% | 102% | 96.1% | 67% | 62.7% | 84.8% | 87.1% | 82.4% | 77.1% | 78.6% | 75.4% | 74.9% | 55% | 56% | 23.5% | 108% | 104% | 104% | 103% | 109% | 108% | 123% | 111% | 102% | 90.4% | 66.5%
9 | CCCC1=N[N](C)C2=C1\N=C(/NC2=O)C3=CC(=CC=C3OCC)[S+]([O-])(=O)N4CCN(C)CC4 | 44.2% | 88.3% | 87.9% | 94.3% | 74% | 88.4% | 79.8% | 80.8% | 87% | 46.3% | 2.85% | 46.9% | 108% | 97.7% | 85.9% | 66.6% | 79.7% | 74% | 78% | 86.9% | 46.2% | 32.2% | 46.1% | 94.2% | 88.5% | 87.4% | 61.7% | 81.2% | 89.9% | 102% | 88.1% | 61.9% | 4.25%
10 | CN(C)CC[C@H](CSc1ccccc1)Nc1ccc([S+](=O)([O-])NC(=O)c2ccc(N3CCN(Cc4ccccc4-c4ccc(Cl)cc4)CC3)cc2)cc1[N+](=O)[O-] | 116% | 126% | 111% | 82.7% | 64.8% | 23.7% | 10.8% | 8.48% | 6.85% | 6.25% | 3.88% | 103% | 118% | 110% | 102% | 73.8% | 27.7% | 11.1% | 6.52% | 4.95% | 3.98% | 2.62% | 128% | 91.3% | 99.7% | 81.7% | 57.4% | 19.7% | 11.3% | 8.96% | 5.67% | 4.98% | 3.36%
11 | COc1cc(Nc2ncc(F)c(Nc3ccc4c(n3)N(COP(=O)(O)O)C(=O)C(C)(C)O4)n2)cc(OC)c1OC | 77% | 88.7% | 95.8% | 91.2% | 65.9% | 55.2% | 35% | 33.5% | 49.9% | 37.1% | 35.5% | 98.2% | 108% | 102% | 107% | 77.9% | 41.1% | 26.5% | 34.7% | 42.8% | 35.1% | 34.4% | 80.8% | 96.6% | 83.5% | 82.1% | 60.2% | 35.7% | 25.1% | 23.7% | 35.1% | 22% | 24.6%
12 | OCCNC1CCCc2c1[nH]c1ccc(-c3ccccc3)cc21 (configuration not stated) | 81.1% | 86.7% | 91.5% | 84.7% | 106% | 101% | 90.2% | 100% | 85.4% | 67.3% | 19.5% | 99.6% | 87.8% | 101% | 109% | 108% | 105% | 88.7% | 91.6% | 74% | 56.1% | 5.82% | 85.6% | 87.9% | 89.7% | 96.1% | 88.7% | 104% | 99% | 94.2% | 94.7% | 68.2% | 22.9%
13 | Cc1cc(-c2nnc3n2CCCCC3)c(C)n1-c1ccccc1 | 110% | 116% | 115% | 123% | 117% | 118% | 120% | 119% | 98.7% | 117% | 115% | 53.2% | 124% | 103% | 107% | 95.6% | 107% | 124% | 126% | 109% | 115% | 102% | 113% | 114% | 140% | 131% | 95.3% | 127% | 136% | 135% | 114% | 126% | 107%
14 | CN1CCN(Cc2ccc(NC(=O)Nc3ccc(Oc4cc(NC(=O)C5CC5)ncn4)cc3)cc2C(F)(F)F)CC1 | 86.5% | 72.2% | 54.1% | 53.4% | 51.4% | 25% | 6.43% | 5.04% | 3.88% | 3.17% | 0.399% | 103% | 80.1% | 53.9% | 49.1% | 41.6% | 23% | 4.1% | 2.81% | 2.25% | 1.45% | 0.371% | 94.9% | 72.4% | 44.6% | 36.5% | 46% | 23.7% | 5.01% | 4.22% | 3.2% | 2.37% | 0.407%
